In patent US20250000855A1, “USE OF APOMORPHINE AS THERAPEUTIC AGENT FOR NECROPTOSIS-RELATED DISEASES” (INDUSTRY-ACADEMIC COOPERATION FOUNDATION, YONSEI UNIVERSITY, priority 2021, published 2025):

Columns and labels:
[1] = system: MLKL translocation in transfected THP-1 cells; test: Flag-MLKL translocation to cell membrane, immunofluorescent staining, confocal microscopy; type: cell-based, human; conditions: transfected THP-1 cells stimulated with compound and TBZ, FIG. 3
Procedure: A human monocyte cell line THP-1 and a human colon cancer cell line HT-29 were maintained in a 10% FBS-Roswell Park Memorial Institute (RPMI) 1640 medium supplemented with 2 mM L-glutamine, 100 U/ml penicillin, and 100 μg/ml streptomycin at 37° C. under a 5% CO2 condition. The THP-1 cells were differentiated into macrophages in an RPMI 1640 medium containing 500 nM Phorbol 12-myristate 13-acetate (PMA) for 3 hours. Human mixed lineage kinase domain-like protein (MLKL)-flag plasmid (Sino Biological, HG12810-CF) transfection was performed using the electroporation system (Invitrogen) of MicroPorator-mini (Digital Bio).
Cells were seeded on cell culture-treated glass chamber slides. The cells were pretreated with Z-VAD, BV6, and the indicated compound for 1 hour, and then treated with TNF-α and BV6 overnight. Subsequently, the cells were washed with phosphate-buffered saline (PBS) and fixed in 4% paraformaldehyde for 10 minutes. Before incubation for 10 minutes in 0.25% Triton X-100 in PBS, the cells were washed three more times with PBS. The cells were blocked with 5% bovine serum albumin (BSA) in PBS for 30 minutes and stained using an anti-Flag (Sigma, F7425-2MG) antibody. The nuclei were stained with DAPI (Invitrogen, 00-4959-52). Images were captured using a confocal microscope (Olympus, FV1000). […]

[2] = system: HMGB1 secretion; test: HMGB1 secretion into supernatant of TBZ-treated THP-1 cells, Western blotting; type: cell-based, human; conditions: APO 1, 5, 20, 80, or 320 μM for 8 hours, vs TBZ only-treated group, FIG. 4
Procedure: Cells were treated with a drug candidate and then collected using centrifugation at 4° C. and 1,500×g for 5 minutes. A supernatant was centrifuged again at 4° C. and 1,500×g for 5 minutes to remove remaining debris, concentrated at 4° C. and 14,000×g for 30 minutes using Amicon ultra-0.5 centrifugal filter unit 10K (Millipore, UFC501096), and stored. The collected cells were lysed using 1× radioimmunoprecipitation assay (RIPA) buffer (GenDEPOT, R4100-010) containing a 1× protease inhibitor (GenDEPOT, P3100-001) and a phosphatase inhibitor (Thermo Fisher Scientific, 1862495). Subsequently, the cell lysate was centrifuged at 4° C. and 20,000×g for 30 minutes to remove debris. The extracted protein concentration was measured using a bicinchoninic acid (BCA) protein assay kit (Thermo Fisher Scientific, 23225). […]
To test whether secretion of HMGB1, a representative damage-associated molecular pattern, which is one of the characteristics of necroptosis, is inhibited by treating THP-1 cells with necroptosis induced by TBZ treatment with APO, after concentration-dependent treatment (1, 5, 20, 80, or 320 μM) with APO for 8 hours, all of the supernatant was concentrated, analyzed by SDS-PAGE, and investigated with an HMGB1 antibody (Experimental Method 1-6). […]

[3] = biological target: T1, MLKL protein (Homo sapiens, UniProt Q8NB16); test: Surface plasmon resonance (SPR) analysis, binding to MLKL protein; conditions: MLKL immobilized on CM5 chip, Biacore T200, 25° C., 10 mM HEPES pH 7.4
T1 construct: purchased Abcam ab241453
T1 sequence (Q8NB16 1-471): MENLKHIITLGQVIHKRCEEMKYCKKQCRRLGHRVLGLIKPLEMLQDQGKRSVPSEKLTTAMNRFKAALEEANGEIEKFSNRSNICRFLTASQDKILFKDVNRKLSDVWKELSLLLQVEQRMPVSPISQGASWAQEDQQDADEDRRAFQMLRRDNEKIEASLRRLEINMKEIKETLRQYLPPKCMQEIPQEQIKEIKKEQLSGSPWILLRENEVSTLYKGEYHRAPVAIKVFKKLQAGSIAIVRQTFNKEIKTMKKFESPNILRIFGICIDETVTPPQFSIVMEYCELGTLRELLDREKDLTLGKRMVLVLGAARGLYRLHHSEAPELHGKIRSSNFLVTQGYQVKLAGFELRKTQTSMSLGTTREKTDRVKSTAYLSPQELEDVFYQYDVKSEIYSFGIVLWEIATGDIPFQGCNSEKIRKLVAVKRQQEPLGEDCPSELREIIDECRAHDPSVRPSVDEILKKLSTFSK
Procedure: The interaction between MLKL and apomorphine (=APO) was detected through surface plasmon resonance (SPR) analysis using Biacore T200 (GE Healthcare). For pH scouting, a buffer consisting of 10 mM sodium acetate (pH 4.0 to 6.0) was used. MLKL protein (Abcam, ab241453), and MLKL N-term (amino acids 1-154) protein that had been purified in a laboratory were immobilized on the surface of a sensor chip CM5 (GE Healthcare) under scouted buffer conditions. To deduce an Rligand value, a coupling process was performed based on the molecular weights of MLKL, MLKL N-term domain (MW ligand), and APO (MW analyte). Oxidized (24 hr, RT incubation) and reduced (+DTT(DL-dithiothreitol)) forms of APO were injected into a running buffer (flow rate: 10 μl/min) consisting of 10 mM HEPES (pH 7.4) at 25° C. A sensorgram was recorded and analyzed in real time using control software provided by the Biacore T200 system itself. Six or more concentrations of APO were used in combination, and each KD value was derived. All run data was calculated using BIAevaluation Software (GE Healthcare).
SPR analysis was used to analyze the interaction pattern between APO and the MLKL protein (Experimental Method 1-10). […] Here, the analysis was performed by binding MLKL and the MLKL N-term domain protein immobilized on a CM5 chip with APO having six concentrations.

Kd [3]: 0.0127 µM
SMILES: CN1CCc2cccc3c2[C@H]1Cc1ccc(O)c(O)c1-3 [APO, apomorphine]
distribution of Flag-MLKL signals [1]: mostly distributed in the cytoplasm | amount of HMGB1 secreted into the supernatant [2]: decreased
